How the values were obtained:
[1] = system: endogenous NNMT activity in differentiated 3T3L1 cells; test: Cell based 3T3L1 assay (MNA levels by LC-MS/MS); design: species or system mouse
Experimental: PE-Sciex API-4000 triple quadrupole (PerkinElmerSciex Instruments, Boston, MA) mass spectrometer was employed for this analysis. […] Detection of the ions was performed in the multiple reaction monitoring (MRM) mode, monitoring the transition of the m/z 137 precursor ion to the m/z 92 product ion for MNA and m/z 141 precursor ion to the m/z 84 product ion for d4-MNA (internal standard).
The supernatant was separated and transferred to pre-labeled HPLC vials and analyzed by LC-MS/MS system.

[2] = system: mice with diet-induced obesity (DIO); test: Chronic efficacy study in diet-induced obesity (DIO) mice; format: in vivo, C57BL6/N mice
Experimental: Samples for MNA were analyzed employing a fit-for-purpose LC-MS/MS method. PE-Sciex API-4000 triple quadrupole (PerkinElmerSciex Instruments, Boston, MA) mass spectrometer was employed for this analysis. Samples (5 µL) were injected onto Kinetex HILIC (50 × 4.6 mm, 2.6 µm; Phenomenex, Torrance, CA, USA) column connected to Shimadzu VP (Shimadzu, Japan) LC system. The gradient mobile phase mixture of 0.2% formic acid and acetonitrile was delivered at a flow rate of 0.45 ml min-1 into the mass spectrometer electrospray ionization (ESI) chamber. Quantitation was achieved by MS/MS detection in positive ion mode for MNA and internal standard (d4–MNA). Detection of the ions was performed in the multiple reaction monitoring (MRM) mode, monitoring the transition of the m/z 137 precursor ion to the m/z 92 product ion for MNA and m/z 141 precursor ion to the m/z 84 product ion for d4-MNA (internal standard).
A simple protein precipitation extraction method was followed for extraction of N-methylnicotinamide from plasma and various tissue homogenate samples. The tissue samples were homogenized with 1:3 proportions of phosphate buffer saline (PBS) and this homogenate was used for N-Methylnicotinamide determinations. To an aliquot of ~50 μL of plasma/ liver homogenate/ adipose tissue homogenate samples ~300 µl of acetonitrile containing IS (d4-MNA) solution was added, followed by vortex for ~3 minutes and centrifuged for 10 minutes at 14,000 rpm. The supernatant was separated and transferred to pre-labeled HPLC vials and analyzed by LC-MS/MS system.
Male C57BL6/N (Vivo Bio Tech Ltd, India), ob/ob (B6.V-Lepob/OlaHsd) and its lean control (Envigo laboratories Inc, USA) and db/db (BKS.Cg- + Leprdb/ + Leprdb/OlaHsd) and its lean control (Envigo laboratories Inc, USA) were housed in individually ventilated cages (n = 5/cage) under standard laboratory conditions. The study room environment was maintained at a temperature of 21–24 °C and, relative humidity at 40–70%. The animal rooms were maintained under 12 h light and dark cycle. Animals were provided with ad libitum access to water and food (except where noted otherwise, e.g. during fasting prior for glucose tolerance tests, fasting prior to terminal sacrifice). Animals were acclimatized for 1 week before initiation of studies. For Diet induced obesity (DIO) mice study, C57BL6/N mice were maintained on rodents chow diet (Teklad; Harlan) or HFD (60% Kcal; Research diet) for 14 weeks before study initiation and throughout the study period. ob/ob and db/db mice and their lean controls were maintained on rodents chow diet (Teklad; Harlan). All the experiments were approved by Institutional Animal Ethics Committee (IAEC) of Jubilant Biosys Ltd, India.
Lean control + Vehicle and HFD + Vehicle Control groups (G1 and G2) mice were administered with vehicle. Dose formulations of HFD + JBSNF-000088, 50 mg kg^−1, po, bid were administered at dose volume of 5 mL kg^−1 body weight to G3 mice. Similar pattern was followed for ob/ob mice and db/db mice studies. The dose volume for individual animals was calculated based on the most recently recorded body weight during the study period. […] Cage side observations of animals for visible clinical signs, was carried out once daily throughout the study period. Individual animal body weights were recorded twice weekly during the study period.
The ob/ob mice were 12 weeks of age at the start of the study and db/db mice were 8 weeks of age at the start of the study. DIO mice were 20 weeks of age at the start of the study. In each study, non-diabetic lean mice comprised the control group which received vehicle (0.5% w/v HEC and 0.5% v/v Tween 80) and obese or diabetic mice were randomly assigned to two groups based on body weight and unfasted glucose which received either vehicle (0.5% w/v HEC and 0.5% v/v Tween 80) or JBSNF-000088, 50 mg kg^−1, po, bid for 30 days.

[3] = target: Adrenoreceptor alpha 2A (ADRA2A) (Homo sapiens, UniProt P08913); test: Selectivity panel: ADRA2A; format: cell-based
Experimental: (§1) Supplement 41598_2018_22081_MOESM1_ESM.docx, table 2: Supplementary table 2: Selectivity profile of JBSNF-000088 (at 10 µM) vs a panel of 34 receptors, channels and enzymes. | column: E% (agonistic); I% (antagonistic or inhibitory)

[4] = target: Dopamine Receptor 2 Short (D2S) (Homo sapiens, UniProt P14416); test: Selectivity panel: D2S; format: cell-based
Experimental: as §1

[5] = target: Dopamine Transporter (Homo sapiens, UniProt Q01959); test: Selectivity panel: dopamine transporter; format: binding; settings: read-out: I% (antagonistic or inhibitory), Dopamine Transporter
Experimental: (§2) Supplement 41598_2018_22081_MOESM1_ESM.docx, table 2: Supplementary table 2: Selectivity profile of JBSNF-000088 (at 10 µM) vs a panel of 34 receptors, channels and enzymes. | column: I% (antagonistic or inhibitory)

[6] = system: K+ Channel Voltage Dependent; test: Selectivity panel: K+ channel; format: binding; settings: 10 µM
[7] = target: Muscarinic Receptor 3 (CHRM3) (Homo sapiens, UniProt P20309); test: Selectivity panel: CHRM3; format: cell-based
Experimental: as §1

[8] = system: Na+/K+ ATPase Pump; test: Selectivity panel: Na+/K+ ATPase; format: biochemical; settings: 10 µM
[9] = system: Phencyclidine Receptor (PCP); test: Selectivity panel: PCP; format: binding; settings: 10 µM
Experimental: as §2

[10] = target: hERG (Homo sapiens, UniProt Q12809); settings: 10 µM
[11] = in vitro; settings: human, hepatocytes
[12] = in vitro; settings: human, Caco-2

Muscarinic Receptor 3 (CHRM3), sequence (P20309 whole entry): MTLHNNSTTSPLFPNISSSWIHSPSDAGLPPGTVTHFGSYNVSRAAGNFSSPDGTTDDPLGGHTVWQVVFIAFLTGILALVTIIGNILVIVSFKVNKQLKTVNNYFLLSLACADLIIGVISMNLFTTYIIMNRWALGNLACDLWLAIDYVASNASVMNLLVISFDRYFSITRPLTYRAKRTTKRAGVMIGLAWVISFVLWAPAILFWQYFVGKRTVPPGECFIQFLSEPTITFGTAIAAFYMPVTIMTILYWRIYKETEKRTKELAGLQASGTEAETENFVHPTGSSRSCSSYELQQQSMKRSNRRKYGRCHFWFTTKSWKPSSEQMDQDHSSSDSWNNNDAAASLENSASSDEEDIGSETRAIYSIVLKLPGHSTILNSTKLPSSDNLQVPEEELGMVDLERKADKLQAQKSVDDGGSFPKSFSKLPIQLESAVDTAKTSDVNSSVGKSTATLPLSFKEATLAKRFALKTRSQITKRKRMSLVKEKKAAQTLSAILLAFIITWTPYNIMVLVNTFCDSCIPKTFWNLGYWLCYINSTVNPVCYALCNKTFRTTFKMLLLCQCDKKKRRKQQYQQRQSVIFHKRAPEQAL
Adrenoreceptor alpha 2A (ADRA2A), sequence (P08913 whole entry): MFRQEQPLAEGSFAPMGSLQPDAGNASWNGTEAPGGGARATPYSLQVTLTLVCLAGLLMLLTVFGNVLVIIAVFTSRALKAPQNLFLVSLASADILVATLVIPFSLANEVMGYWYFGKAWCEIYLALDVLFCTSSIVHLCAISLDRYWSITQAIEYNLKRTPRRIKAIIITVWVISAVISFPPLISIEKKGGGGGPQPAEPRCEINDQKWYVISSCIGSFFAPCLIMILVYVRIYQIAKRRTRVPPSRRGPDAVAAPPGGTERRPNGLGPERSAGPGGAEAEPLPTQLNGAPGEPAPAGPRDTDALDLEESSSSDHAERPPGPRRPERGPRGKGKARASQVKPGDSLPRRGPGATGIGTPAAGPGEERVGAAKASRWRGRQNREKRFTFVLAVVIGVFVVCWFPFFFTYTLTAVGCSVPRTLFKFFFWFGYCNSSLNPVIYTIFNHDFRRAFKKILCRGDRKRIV
Dopamine Receptor 2 Short (D2S), sequence (P14416 1-414 isoform P14416-2): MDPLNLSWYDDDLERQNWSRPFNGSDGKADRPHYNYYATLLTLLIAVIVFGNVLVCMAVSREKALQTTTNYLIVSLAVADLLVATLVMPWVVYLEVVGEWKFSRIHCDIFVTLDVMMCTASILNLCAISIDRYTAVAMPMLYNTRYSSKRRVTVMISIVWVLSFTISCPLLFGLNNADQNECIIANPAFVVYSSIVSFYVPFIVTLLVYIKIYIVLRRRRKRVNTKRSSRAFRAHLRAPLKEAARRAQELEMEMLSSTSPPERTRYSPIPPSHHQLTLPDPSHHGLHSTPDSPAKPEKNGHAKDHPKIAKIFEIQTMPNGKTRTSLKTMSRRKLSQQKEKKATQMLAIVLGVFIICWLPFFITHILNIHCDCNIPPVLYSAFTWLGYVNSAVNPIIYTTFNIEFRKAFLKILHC
Dopamine Transporter, sequence (Q01959 whole entry): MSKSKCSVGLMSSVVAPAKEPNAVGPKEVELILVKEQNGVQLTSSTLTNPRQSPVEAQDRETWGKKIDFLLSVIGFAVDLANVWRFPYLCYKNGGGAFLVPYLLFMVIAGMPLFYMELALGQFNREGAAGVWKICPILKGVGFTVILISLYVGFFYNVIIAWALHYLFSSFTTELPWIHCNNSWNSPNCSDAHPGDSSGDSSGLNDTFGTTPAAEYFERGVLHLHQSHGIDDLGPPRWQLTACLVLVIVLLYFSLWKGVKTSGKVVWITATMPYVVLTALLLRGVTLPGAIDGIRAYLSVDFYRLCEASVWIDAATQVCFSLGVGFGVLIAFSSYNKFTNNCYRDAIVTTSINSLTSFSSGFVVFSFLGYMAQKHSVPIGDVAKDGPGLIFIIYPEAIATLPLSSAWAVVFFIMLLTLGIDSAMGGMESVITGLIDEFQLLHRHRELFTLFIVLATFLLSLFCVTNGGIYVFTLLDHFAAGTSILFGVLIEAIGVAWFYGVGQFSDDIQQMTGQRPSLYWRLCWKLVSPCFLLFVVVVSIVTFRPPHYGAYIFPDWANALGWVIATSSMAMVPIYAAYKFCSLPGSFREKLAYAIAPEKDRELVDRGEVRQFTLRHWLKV
hERG, sequence (Q12809 whole entry): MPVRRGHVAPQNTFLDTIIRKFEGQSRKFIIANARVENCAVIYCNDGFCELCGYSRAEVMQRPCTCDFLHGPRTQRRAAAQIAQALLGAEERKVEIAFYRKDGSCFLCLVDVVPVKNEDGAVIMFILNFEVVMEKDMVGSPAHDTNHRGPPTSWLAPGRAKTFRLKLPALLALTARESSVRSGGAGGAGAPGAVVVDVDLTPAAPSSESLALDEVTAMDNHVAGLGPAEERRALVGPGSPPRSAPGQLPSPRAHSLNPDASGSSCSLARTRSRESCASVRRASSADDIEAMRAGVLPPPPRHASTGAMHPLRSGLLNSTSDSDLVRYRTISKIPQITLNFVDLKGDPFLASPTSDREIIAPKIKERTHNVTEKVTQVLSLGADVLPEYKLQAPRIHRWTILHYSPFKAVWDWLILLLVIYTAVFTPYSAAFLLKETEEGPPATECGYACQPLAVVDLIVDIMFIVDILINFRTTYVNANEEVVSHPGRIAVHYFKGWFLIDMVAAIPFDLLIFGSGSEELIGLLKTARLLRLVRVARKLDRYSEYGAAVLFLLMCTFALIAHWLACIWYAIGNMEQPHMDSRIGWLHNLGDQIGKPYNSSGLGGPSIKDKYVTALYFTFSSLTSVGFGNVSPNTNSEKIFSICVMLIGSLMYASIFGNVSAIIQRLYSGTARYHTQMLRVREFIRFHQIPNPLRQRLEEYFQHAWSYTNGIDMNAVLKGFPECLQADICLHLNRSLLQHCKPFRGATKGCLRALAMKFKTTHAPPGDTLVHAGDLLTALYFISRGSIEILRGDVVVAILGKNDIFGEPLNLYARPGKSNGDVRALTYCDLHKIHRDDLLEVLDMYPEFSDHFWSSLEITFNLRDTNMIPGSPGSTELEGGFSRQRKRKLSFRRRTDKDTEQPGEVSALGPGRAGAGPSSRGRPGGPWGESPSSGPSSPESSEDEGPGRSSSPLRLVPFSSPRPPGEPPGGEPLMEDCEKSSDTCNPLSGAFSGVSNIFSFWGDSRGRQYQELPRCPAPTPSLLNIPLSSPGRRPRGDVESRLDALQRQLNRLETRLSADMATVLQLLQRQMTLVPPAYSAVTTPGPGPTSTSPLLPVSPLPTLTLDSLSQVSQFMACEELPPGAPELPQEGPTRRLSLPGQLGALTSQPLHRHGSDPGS

SMILES: COc1ccc(C(N)=O)cn1 [JBSNF-000088, 6-methoxynicotinamide]
- IC50 ([1]; Mus musculus, 3T3-L1, 24 h treatment, MNA by LC-MS/MS): 6.3 µM
- right shift in potency, 3T3L1 cells compared to U2OS cells ([1]; ratio of cellular IC50 values): approximately 4 fold
- body weight (%) ([2]; 50 mg kg^−1 b.i.d. p.o., four weeks, vs vehicle): statistically significant reduction
- cumulative food intake ([2]; 50 mg kg^−1 b.i.d. p.o., vs vehicle): comparable
- fed plasma insulin ([2]; day 14, p < 0.01 vs HFD control): trend to a reduction in fed plasma insulin that was statistically significant on day 14
- fed blood glucose ([2]; day 21, p < 0.01 vs vehicle control): statistically significant reduction
- oral glucose tolerance ([2]; day 28, normalized to chow control group): statistically significant improvement
- AUC blood glucose (OGTT) ([2]; day 28, p < 0.001 vs HFD control): Significantly lower
- MNA levels in visceral WAT ([2]; p < 0.0001 vs HFD control): statistically significant reduction
- plasma insulin at 0 and 15 minutes of OGTT ([2]; p < 0.0001 vs HFD control): statistically significant lower
- HOMA-IR index ([2]; p < 0.0001 vs vehicle-treated HFD controls): statistically significant improvement
- plasma triglyceride ([2]; p < 0.001 vs HFD control, data not shown): statistically significant reduction
- liver triglyceride ([2]; p < 0.05 vs HFD control, data not shown): statistically significant reduction
- E% (agonistic), ADRA2A ([3]; 10 µM): 4%
- inhibition at 10 µM ([3]; read-out: I% (antagonistic or inhibitory), ADRA2A): -12%
- E% (agonistic), D2S ([4]; 10 µM): -3%
- inhibition at 10 µM ([4]; read-out: I% (antagonistic or inhibitory), D2S): 12%
- inhibition at 10 µM [5]: 7%
- I% (antagonistic or inhibitory), K+ Channel Voltage Dependent [6]: 3%
- E% (agonistic), CHRM3 ([7]; 10 µM): -1%
- inhibition at 10 µM ([7]; read-out: I% (antagonistic or inhibitory), CHRM3): 21%
- I% (antagonistic or inhibitory), Na+/K+ ATPase Pump [8]: 0%
- I% (antagonistic or inhibitory), PCP [9]: -11%
- hERG inhibition [10]: < 30%
- remaining at 0.5 h [11]: > 70%
- Papp [12]: 25.2 ×10⁻⁶ cm/s
- efflux ratio [12]: 1.04
